Assay results taken from PubChem BioAssay (NCI).
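Assay format: 96-well plates, 48-hour exposure. Abbreviation: GI50, concentration required for 50% inhibition of growth. The concentration for full growth arrest is given as TGI.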

How the values were obtained:
Assay in all cases: growth of human tumour cells (NCI), 48 h
SK-OV-3 ovarian = system: SK-OV-3 ovarian
KM12 colon = system: KM12 colon
SK-MEL-28 melanoma = system: SK-MEL-28 melanoma
CCRF-CEM leukemia = system: CCRF-CEM leukemia
OVCAR-3 ovarian = system: OVCAR-3 ovarian
HCT-15 colon = system: HCT-15 colon
UACC-257 melanoma = system: UACC-257 melanoma
HL-60(TB) leukemia = system: HL-60(TB) leukemia
SNB-19 CNS = system: SNB-19 CNS
MCF7 breast = system: MCF7 breast

Row | Compound | GI50 (SK-OV-3 ovarian) [µM] | TGI (SK-OV-3 ovarian) [µM] | GI50 (KM12 colon) [µM] | TGI (KM12 colon) [µM] | GI50 (SK-MEL-28 melanoma) [µM] | TGI (SK-MEL-28 melanoma) [µM] | GI50 (CCRF-CEM leukemia) [µM] | TGI (CCRF-CEM leukemia) [µM] | GI50 (OVCAR-3 ovarian) [µM] | TGI (OVCAR-3 ovarian) [µM] | GI50 (HCT-15 colon) [µM] | TGI (HCT-15 colon) [µM] | GI50 (UACC-257 melanoma) [µM] | TGI (UACC-257 melanoma) [µM] | GI50 (HL-60(TB) leukemia) [µM] | TGI (HL-60(TB) leukemia) [µM] | GI50 (SNB-19 CNS) [µM] | TGI (SNB-19 CNS) [µM] | GI50 (MCF7 breast) [µM] | TGI (MCF7 breast) [µM]
1 | CCN1C(=O)N(CC)C2C1NC(=S)N2/N=C/C=C/c1ccccc1 (stereo not drawn) | 0.494 | > 100 | 0.0924 | > 100 | 1.91 | > 100 | 0.128 | > 100 | 0.0425 | > 100 | 0.0849 | > 100 | > 100 | > 100 | 0.0387 | 0.29 | 0.127 | > 100 | 0.0418 | > 100
2 | C/C(=C/CCC(C)[C@@H]1CC[C@]2(C)C3=C(CC[C@@]12C)[C@@]1(C)CCC(=O)C(C)(C)[C@@H]1CC3)C(=O)O (stereo partly drawn) | 1.78 | 3.18 | 0.747 | 2.3 | 1.42 | 2.82 | 0.708 | 2.5 | 1.41 | 2.79 | 0.974 | 3 | 1.56 | 3.06 | 0.855 | 2.32 | 1.17 | 2.68 | 1.02 | 2.87
3 | CC(=O)Nc1cccc(C#Cc2cncnc2Nc2ccc(OCc3cccc(F)c3)c(Cl)c2)c1 | 6.14 | > 25 | 9.64 | > 25 | 17.1 | > 25 | 10.2 | > 25 | 7.53 | > 25 | 7.41 | > 25 | 13.7 | > 25 | 7.59 | > 25 | 24.6 | > 25 | 8.33 | > 25
4 | Nc1c(C(=O)Nc2ccccc2)sc2nc3c(cc12)C(=O)CCC3 | 0.412 | > 100 | 0.323 | > 100 | 0.71 | > 100 | 0.374 | > 100 | 0.264 | 1.22 | 0.407 | > 100 | 0.57 | > 100 | 0.587 | > 100 | 0.73 | > 100 | 0.366 | > 100
5 | Nc1nc(-c2ccccc2)c(CC(=O)O)s1 |  | > 100 |  | > 100 |  | > 100 |  |  |  | > 100 |  | > 100 |  | > 100 |  | 83.1 |  | > 100 |  | > 100
6 | N#CN1CC[C@H](C(=O)Nc2ncc(-c3ccccc3)s2)C1 | 2.2 | 13.8 | 0.592 | 2.78 | 1.09 | 3.01 | 0.271 | > 100 | 0.346 | 1.44 | 0.312 | 3.65 | 1.52 | 3.73 | 0.269 | 0.652 | 1.11 | 11.3 | 0.19 | 1.32
7 | CN(C)CCNC(=O)Nc1ccc(N(C)c2ccnc(Nc3ccc(CS(C)(=O)=O)cc3)n2)cc1 | > 25 | > 25 | 9.88 | > 25 | > 25 | > 25 | 16.5 | > 25 | > 25 | > 25 | > 25 | > 25 | > 25 | > 25 | > 25 | > 25 | > 25 | > 25 | > 25 | > 25
8 | CCOC(=O)c1cn(C)c2c(OC)c3ccccc3c(OC)c2c1=O | 77.1 | > 100 | 19.7 | 48.3 | 56 | > 100 | 34.1 | > 100 | 5.62 | 25.7 | 29.6 | > 100 | 16.6 | 40.6 | 35.9 | > 100 | 36.6 | > 100 | 22.9 | 47.8
9 | OCCNc1nc2ccccc2c2[nH]c3ccccc3c12 | 0.329 | 2.07 | 0.483 | 4.63 | 1.04 | 2.55 | 0.654 | 10.7 | 0.516 | 3.47 | 0.349 | 3.59 | 0.944 | 2.33 | 0.349 | 1.95 | 0.345 | 3.57 | 0.355 | 2
10 | O=c1[nH]c(=S)[nH]c(O)c1/C=C1\C=Nc2ccccc21 | 15.7 | 81.5 | 1.64 | 3.34 | 6.69 | 48.3 | 2.12 | 6.47 | 1.44 | 3.13 | 2.78 | 8.07 | 14.2 | 53.6 | 2.65 | 8.88 | 4.53 | 59.3 | 3.95 | 23.9
11 | Cn1cc(-c2ccc3ncc(-c4ccc(CC(=O)Nc5cc(C(C)(C)C)nn5C)cc4)cc3c2)cn1 | 0.934 | > 20 | 0.151 | 3 | 3.57 | > 20 | 0.81 | 16.6 | 1.4 | > 20 | 0.793 | > 20 | 1.45 | > 20 | 1.2 | 8.28 | 3.35 | > 20 | 1.47 | > 20
12 | C/C(=N\NC(=S)N1CCC1)c1ccccn1 |  | 5.7 | 0.0477 | 46.7 |  | > 56 | 0.00658 |  | 0.00157 |  | 0.00336 | 45.4 | 0.00326 | 1.42 | 0.0045 | 3.57 |  | > 100 |  | 0.00635
